Source: article PMC4770715, “LIM kinase inhibitors disrupt mitotic microtubule organization and impair tumor cell proliferation” (Oncotarget, 2015)

Tests used:
Experiment in all cases: biochemical
Set-up in all cases: KINOMEscan active-site competition binding, percent of control (100 = no competition)
Details in all cases: competition binding, percent control
[1] = target: BMPR1B (Homo sapiens, UniProt O00238)
[2] = target: BMPR2 (Homo sapiens, UniProt Q13873)
[3] = target: CAMK2A (Homo sapiens, UniProt Q9UQM7)
CAMK2A, sequence (Q9UQM7 whole entry): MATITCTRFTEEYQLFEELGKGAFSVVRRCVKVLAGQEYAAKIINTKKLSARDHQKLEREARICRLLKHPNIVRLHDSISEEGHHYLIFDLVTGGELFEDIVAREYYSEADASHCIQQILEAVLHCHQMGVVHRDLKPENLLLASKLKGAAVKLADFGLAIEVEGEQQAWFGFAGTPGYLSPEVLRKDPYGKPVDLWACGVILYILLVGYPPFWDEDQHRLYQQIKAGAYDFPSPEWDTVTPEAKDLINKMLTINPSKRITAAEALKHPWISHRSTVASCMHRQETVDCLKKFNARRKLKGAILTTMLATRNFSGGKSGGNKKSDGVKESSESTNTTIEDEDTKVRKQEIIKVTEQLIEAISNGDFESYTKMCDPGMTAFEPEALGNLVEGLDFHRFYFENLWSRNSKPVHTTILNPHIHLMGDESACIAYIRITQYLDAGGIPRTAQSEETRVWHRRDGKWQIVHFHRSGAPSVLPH

[4] = target: T1, CDC2L2 (Homo sapiens, UniProt Q9UQ88)
T1 construct: gene CDK11A

[5] = target: T2, CDC2L5 (Homo sapiens, UniProt Q14004)
T2 construct: gene CDK13

[6] = target: CSNK1G3 (Homo sapiens, UniProt Q9Y6M4)
[7] = target: DYRK1A (Homo sapiens, UniProt Q13627)
[8] = target: FER (Homo sapiens, UniProt P16591)
[9] = target: T3, IKK-alpha (Homo sapiens, UniProt O15111)
T3 construct: gene CHUK

[10] = target: LIMK2 (Homo sapiens, UniProt P53671)
[11] = target: MAP4K2 (Homo sapiens, UniProt Q12851)
MAP4K2, sequence (Q12851 whole entry): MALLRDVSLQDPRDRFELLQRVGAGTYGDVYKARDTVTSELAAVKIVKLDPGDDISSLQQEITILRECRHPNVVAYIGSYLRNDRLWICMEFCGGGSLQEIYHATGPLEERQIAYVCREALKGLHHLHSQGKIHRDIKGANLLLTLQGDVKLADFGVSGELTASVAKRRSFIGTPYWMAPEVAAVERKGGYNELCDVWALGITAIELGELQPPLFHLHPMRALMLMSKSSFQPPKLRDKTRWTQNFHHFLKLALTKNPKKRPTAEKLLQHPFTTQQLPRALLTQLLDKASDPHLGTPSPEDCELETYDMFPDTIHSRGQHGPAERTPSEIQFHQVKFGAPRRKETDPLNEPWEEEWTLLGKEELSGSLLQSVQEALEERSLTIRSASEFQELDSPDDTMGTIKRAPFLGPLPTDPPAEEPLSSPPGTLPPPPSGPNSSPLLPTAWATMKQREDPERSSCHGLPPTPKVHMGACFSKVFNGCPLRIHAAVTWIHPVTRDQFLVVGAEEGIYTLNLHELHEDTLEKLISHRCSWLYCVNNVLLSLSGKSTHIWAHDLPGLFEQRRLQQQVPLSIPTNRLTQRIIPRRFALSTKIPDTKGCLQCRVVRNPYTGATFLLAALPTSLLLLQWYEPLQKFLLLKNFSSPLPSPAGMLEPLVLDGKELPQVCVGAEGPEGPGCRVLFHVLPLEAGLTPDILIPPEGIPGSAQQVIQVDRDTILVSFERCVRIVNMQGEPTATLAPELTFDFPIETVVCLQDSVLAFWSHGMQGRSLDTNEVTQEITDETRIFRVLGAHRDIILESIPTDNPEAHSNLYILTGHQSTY

[12] = target: NEK11 (Homo sapiens, UniProt Q8NG66)
[13] = target: T4, NIM1 (Homo sapiens, UniProt Q8IY84)
T4 construct: gene NIM1K
T4 sequence (Q8IY84 whole entry): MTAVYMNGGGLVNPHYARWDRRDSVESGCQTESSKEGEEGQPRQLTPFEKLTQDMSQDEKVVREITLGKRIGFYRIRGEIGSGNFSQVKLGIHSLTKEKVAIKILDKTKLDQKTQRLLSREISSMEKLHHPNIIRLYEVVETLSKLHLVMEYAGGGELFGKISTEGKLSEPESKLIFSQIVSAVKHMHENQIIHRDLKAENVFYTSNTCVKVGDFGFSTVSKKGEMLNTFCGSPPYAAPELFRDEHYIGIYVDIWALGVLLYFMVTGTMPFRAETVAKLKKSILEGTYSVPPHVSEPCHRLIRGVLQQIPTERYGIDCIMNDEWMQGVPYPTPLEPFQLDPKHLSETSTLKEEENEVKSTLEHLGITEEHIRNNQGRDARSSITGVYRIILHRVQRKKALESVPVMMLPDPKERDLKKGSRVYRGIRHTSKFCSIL

[14] = target: T5, PAK7 (Homo sapiens, UniProt Q9P286)
T5 construct: gene PAK5
T5 sequence (Q9P286 whole entry): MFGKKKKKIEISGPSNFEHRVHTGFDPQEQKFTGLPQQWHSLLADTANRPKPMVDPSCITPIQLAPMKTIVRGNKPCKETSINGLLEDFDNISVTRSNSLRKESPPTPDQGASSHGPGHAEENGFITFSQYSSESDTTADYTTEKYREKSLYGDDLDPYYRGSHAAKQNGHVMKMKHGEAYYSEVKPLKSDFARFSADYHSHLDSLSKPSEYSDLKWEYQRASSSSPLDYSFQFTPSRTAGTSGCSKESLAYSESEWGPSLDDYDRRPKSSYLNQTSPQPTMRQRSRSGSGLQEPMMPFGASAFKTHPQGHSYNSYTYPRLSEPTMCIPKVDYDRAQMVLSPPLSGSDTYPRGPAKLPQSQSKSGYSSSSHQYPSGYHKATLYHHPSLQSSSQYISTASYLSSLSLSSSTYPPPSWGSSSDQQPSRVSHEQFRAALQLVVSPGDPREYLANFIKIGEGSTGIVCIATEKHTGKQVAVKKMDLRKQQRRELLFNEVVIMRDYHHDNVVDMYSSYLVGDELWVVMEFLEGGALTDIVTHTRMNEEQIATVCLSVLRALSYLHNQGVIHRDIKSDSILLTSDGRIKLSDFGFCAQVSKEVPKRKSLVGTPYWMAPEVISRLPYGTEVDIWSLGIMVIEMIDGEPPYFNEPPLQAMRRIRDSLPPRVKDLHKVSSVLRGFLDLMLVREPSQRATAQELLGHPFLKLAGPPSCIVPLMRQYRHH

[15] = target: T6, PFTAIRE2 (Homo sapiens, UniProt Q96Q40)
T6 construct: gene CDK15
T6 sequence (Q96Q40 whole entry): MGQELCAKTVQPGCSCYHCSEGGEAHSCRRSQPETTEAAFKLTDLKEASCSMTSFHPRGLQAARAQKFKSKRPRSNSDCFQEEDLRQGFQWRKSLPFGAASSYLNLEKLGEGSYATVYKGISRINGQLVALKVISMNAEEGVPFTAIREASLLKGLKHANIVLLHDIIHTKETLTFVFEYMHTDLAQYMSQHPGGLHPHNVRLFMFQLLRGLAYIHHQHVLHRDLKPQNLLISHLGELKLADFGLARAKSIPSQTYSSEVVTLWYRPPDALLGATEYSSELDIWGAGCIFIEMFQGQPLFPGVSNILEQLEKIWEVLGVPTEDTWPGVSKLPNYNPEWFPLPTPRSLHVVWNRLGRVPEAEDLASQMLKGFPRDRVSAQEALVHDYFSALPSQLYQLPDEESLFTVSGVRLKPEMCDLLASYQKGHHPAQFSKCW

[16] = target: PIK3CA(E545A) (Homo sapiens, UniProt P42336, E545A)
[17] = target: PIK3CA(M1043I) (Homo sapiens, UniProt P42336, M1043I)
[18] = target: T7, RSK1(Kin.Dom.1-N-terminal) (Homo sapiens, UniProt Q15418)
T7 construct: gene RPS6KA1; Kin.Dom.1-N-terminal
T7 sequence (Q15418 whole entry): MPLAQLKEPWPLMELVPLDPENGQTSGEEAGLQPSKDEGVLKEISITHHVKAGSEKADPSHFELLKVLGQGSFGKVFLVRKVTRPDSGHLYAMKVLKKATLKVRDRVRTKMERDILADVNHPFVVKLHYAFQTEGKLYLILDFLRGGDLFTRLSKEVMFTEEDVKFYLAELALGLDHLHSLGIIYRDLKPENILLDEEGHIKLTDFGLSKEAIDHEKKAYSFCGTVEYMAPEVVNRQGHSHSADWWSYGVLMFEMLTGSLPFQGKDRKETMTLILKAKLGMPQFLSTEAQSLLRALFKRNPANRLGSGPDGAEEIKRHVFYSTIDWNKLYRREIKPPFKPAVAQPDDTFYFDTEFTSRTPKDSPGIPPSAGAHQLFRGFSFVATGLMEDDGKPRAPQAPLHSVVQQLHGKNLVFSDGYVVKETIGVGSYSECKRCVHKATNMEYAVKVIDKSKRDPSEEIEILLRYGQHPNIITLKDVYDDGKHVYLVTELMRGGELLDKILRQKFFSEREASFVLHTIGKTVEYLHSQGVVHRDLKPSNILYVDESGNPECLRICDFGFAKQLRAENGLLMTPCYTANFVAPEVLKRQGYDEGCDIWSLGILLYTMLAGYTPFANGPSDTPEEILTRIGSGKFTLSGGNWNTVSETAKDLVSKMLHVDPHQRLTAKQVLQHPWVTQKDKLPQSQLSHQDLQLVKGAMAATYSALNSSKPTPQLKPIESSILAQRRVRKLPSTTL

[19] = target: TAOK1 (Homo sapiens, UniProt Q7L7X3)
[20] = target: TNNI3K (Homo sapiens, UniProt Q59H18)
[21] = target: T8, TRKC (Homo sapiens, UniProt Q16288)
T8 construct: gene NTRK3
T8 sequence (Q16288 whole entry): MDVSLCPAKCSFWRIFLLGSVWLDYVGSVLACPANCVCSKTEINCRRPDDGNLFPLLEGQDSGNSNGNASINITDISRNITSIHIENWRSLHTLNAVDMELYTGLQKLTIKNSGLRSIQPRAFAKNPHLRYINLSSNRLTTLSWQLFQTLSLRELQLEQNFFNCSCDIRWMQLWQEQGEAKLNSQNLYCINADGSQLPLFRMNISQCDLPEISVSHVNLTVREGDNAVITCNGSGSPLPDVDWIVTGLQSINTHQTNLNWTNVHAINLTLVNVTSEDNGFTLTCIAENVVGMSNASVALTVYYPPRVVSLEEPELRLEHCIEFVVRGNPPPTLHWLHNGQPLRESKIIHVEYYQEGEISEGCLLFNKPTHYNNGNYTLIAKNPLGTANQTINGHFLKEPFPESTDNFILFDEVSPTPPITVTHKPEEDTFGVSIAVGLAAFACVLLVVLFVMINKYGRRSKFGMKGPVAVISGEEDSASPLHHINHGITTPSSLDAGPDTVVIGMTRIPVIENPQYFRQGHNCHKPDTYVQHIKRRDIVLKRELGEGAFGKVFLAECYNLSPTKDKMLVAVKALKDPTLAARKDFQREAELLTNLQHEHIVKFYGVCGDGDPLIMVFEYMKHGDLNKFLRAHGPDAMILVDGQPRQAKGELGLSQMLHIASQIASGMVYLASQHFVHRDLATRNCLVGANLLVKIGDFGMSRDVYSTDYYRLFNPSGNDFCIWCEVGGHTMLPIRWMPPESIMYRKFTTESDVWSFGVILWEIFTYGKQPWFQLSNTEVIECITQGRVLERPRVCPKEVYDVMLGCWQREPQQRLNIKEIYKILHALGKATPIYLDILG

[22] = target: WEE2 (Homo sapiens, UniProt P0C1S8)
[23] = target: T9, YANK3 (Homo sapiens, UniProt Q86UX6)
T9 construct: gene STK32C
T9 sequence (Q86UX6 whole entry): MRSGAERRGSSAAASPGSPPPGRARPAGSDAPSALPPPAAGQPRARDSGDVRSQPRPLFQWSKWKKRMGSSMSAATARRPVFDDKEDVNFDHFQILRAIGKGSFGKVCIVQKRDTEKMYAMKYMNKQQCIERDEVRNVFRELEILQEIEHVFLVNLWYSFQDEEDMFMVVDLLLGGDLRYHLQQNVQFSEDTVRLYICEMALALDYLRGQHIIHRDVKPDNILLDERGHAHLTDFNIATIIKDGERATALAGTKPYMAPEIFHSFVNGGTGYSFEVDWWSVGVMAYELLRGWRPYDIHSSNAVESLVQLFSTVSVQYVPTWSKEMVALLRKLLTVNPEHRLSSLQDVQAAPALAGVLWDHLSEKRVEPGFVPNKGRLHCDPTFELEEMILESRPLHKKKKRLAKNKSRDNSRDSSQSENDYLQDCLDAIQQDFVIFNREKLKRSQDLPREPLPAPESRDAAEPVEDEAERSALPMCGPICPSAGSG

Compound	remaining binding at 10 µM [1] [%]	remaining binding at 10 µM [2] [%]	remaining binding at 10 µM [3] [%]	remaining binding at 10 µM [4] [%]	remaining binding at 10 µM [5] [%]	remaining binding at 10 µM [6] [%]	remaining binding at 10 µM [7] [%]	remaining binding at 10 µM [8] [%]	remaining binding at 10 µM [9] [%]	remaining binding at 10 µM [10] [%]	remaining binding at 10 µM [11] [%]	remaining binding at 10 µM [12] [%]	remaining binding at 10 µM [13] [%]	remaining binding at 10 µM [14] [%]	remaining binding at 10 µM [15] [%]	remaining binding at 10 µM [16] [%]	remaining binding at 10 µM [17] [%]	remaining binding at 10 µM [18] [%]	remaining binding at 10 µM [19] [%]	remaining binding at 10 µM [20] [%]	other results
COc1ccc(-c2cnccc2-c2cnc(NC(=O)C(C)C)s2)c(C(F)(F)F)c1 [CRT0105446, N-{5-[3-(4-Methoxy-2-trifluoromethyl-phenyl)-pyridin-4-yl]-hiazol-2-yl}-isobutyramide]	92	100	82	59	14	67	76	100	89	1.1	100	100	100	95	18	100	100	56	93	93	remaining binding at 10 µM [21]: 100%; remaining binding at 10 µM [22]: 100%; remaining binding at 10 µM [23]: 100%
Cc1ccc(-c2cnccc2-c2cnc(Nc3ccc(O)cc3)s2)c(Cl)c1 [CRT0105950, 4-{5-[3-(2-Chloro-4-methyl-phenyl)-pyridin-4-yl]-thiazol-2-ylamino}-phenol]	29	8.9	33	89	26	43	30	57	94	0	81	84	100	93	18	100	100	0.05	17	43	remaining binding at 10 µM [21]: 0.6%; remaining binding at 10 µM [22]: 100%; remaining binding at 10 µM [23]: 100%
